Laboratory results published in PMC3582038 (Bioorganic & medicinal chemistry, 2012).
Converted amounts (≈) assume the structure as drawn. Marks after values point to notes of the source that are not given here.

Key:
[1] = In vivo pharmacokinetics in rats; details: for toxicity in both administration modes: IV 10 mg/kg and PO 100 mg/kg; for unbound peak plasma concentration as multiple of the MIC: peak plasma concentration converted to unbound; for half-life: male, Sprague-Dawley, rat, plasma, iv, 10 mg/kg; for fe (fraction of dose excreted unchanged in urine): mean (SD)
[2] = test system: E. coli K12 ΔtolC; type: cell-based; details: efflux pump deficient
[3] = test system: Strep. pyogenes ATCC 700294; assay: Antibacterial spectrum MIC, S. pyogenes; type: cell-based; details: Streptococcus pyogenes, ATCC700294, read-out: MIC S. pyogenes
[4] = test system: M. tuberculosis; assay: Antituberculosis MIC, microbroth dilution; type: cell-based; details: M. tuberculosis MIC relative to compound 11
[5] = rats, based on a 10 mg/kg IV dose; ref [21],[22] (Linezolid), [23],[24] (Ofloxacin); cited from earlier work

SMILES	toxicity in both administration modes ([1]; rats)	unbound peak plasma concentration as multiple of the MIC ([1]; rats, IV 10 mg/kg)	MIC E. coli ΔtolC [2]	other results
O=[N+]([O-])c1ccc(C2=NOC(c3ccc(N4CCOCC4)cc3)C2)o1 (stereo not shown) [Compound 6, 4-(4-(3-(5-Nitrofuran-2-yl)-4,5-dihydroisoxazol-5-yl)phenyl)morpholine]	non-toxic	5.0 times the MIC	–	–
O=[N+]([O-])c1ccc(C2=NOC(c3ccc(N4CCCCC4)cc3)C2)o1 (stereo not shown) [Compound 1]	non-toxic	4.6 times the MIC	–	–
CN1CCN(c2ccc(C3CC(c4ccc([N+](=O)[O-])o4)=NO3)cc2)C(=O)C1 (stereo not shown) [Compound 15, 4-methyl-1-(4-(3-(5-nitrofuran-2-yl)-4,5-dihydroisoxazol-5-yl)phenyl)piperazin-2-one]	–	0.71 times the MIC	–	half-life [1]: 36.6 to 43.2 min; toxicity observed after IV dosing ([1]; rats, IV 10 mg/kg): seizures and death in one animal; deaths after oral administration ([1]; rats, PO 100 mg/kg): No animals died; fe (fraction of dose excreted unchanged in urine) ([1]; rats): 0.68 (0.44) %
CN1CCN(c2ccc(C3CC(c4ccc([N+](=O)[O-])o4)=NO3)cn2)C(=O)C1 (stereo not shown) [Compound 16, 4-methyl-1-(5-(3-(5-nitrofuran-2-yl)-4,5-dihydroisoxazol-5-yl)pyridin-2-yl)piperazin-2-one]	–	–	6.25 µg/mL (≈ 16.8 µM)	–
O=C1COCCN1c1ccc(C2CC(c3ccc([N+](=O)[O-])o3)=NO2)cn1 (stereo not shown) [Compound 19, 4-(5-(3-(5-nitrofuran-2-yl)-4,5-dihydroisoxazol-5-yl)pyridin-2-yl)morpholin-3-one]	–	–	–	MIC [3]: 1000 µg/mL (≈ 2800 µM)
O=[N+]([O-])c1ccc(C2=NOC(c3ccc(N4CCOCC4)nc3)C2)o1 (stereo not shown) [Compound 7, 4-(5-(3-(5-Nitrofuran-2-yl)-4,5-dihydroisoxazol-5-yl)pyridin-2-yl)morpholine]	non-toxic	9.8 times the MIC	6.25 µg/mL (≈ 18.2 µM)	half-life [1]: 36.6 to 43.2 min; fe (fraction of dose excreted unchanged in urine) ([1]; rats): 0.021 (0.01) %
O=[N+]([O-])c1ccc(C2=NOC(c3ccc(N4CC[S+]([O-])CC4)cc3)C2)o1 (stereo not shown) [Compound 12, 4-(4-(3-(5-nitrofuran-2-yl)-4,5-dihydroisoxazol-5-yl)phenyl)thiomorpholine 1-oxide]	–	–	–	fold weaker MIC value than 11 [4]: 8 fold
O=[N+]([O-])c1ccc(C2=NOC(c3ccc(N4CCOCC4)c(F)c3)C2)o1 (stereo not shown) [Compound 8, 4-(2-Fluoro-4-(3-(5-nitrofuran-2-yl)-4,5-dihydroisoxazol-5-yl)phenyl)morpholine]	–	–	6.25 µg/mL (≈ 17.3 µM)	–
CC1COc2c(N3CCN(C)CC3)c(F)cc3c(=O)c(C(=O)O)cn1c23 (stereo not shown) [Ofloxacin]	–	–	–	AUCo0-∞ [5]: 6.1–11.8 ^* hr mg/L
